Tested on: Der f-induced AD mouse model
Test: Dermatophagoides farinae (Der f)-induced atopic dermatitis (AD)-like mouse model, topical route
Format: in vivo, Balb/c mice
Conditions: for cytokine concentration / production (IL-10, IL-13, IL-17, IL-4, IL-5, IFNg; FIG. 5): 0.1% ivermectin; for inflammatory response induced by Der f application: topical daily day 19 to day 36, solutions in acetone, ivermectin 0.003-0.1%; for ear edema (ear thickness, FIG. 1): topical daily day 19 to day 36
Protocol: 1.1. […] Der f has been purchased from Greer Laboratories and a Der f solution has been prepared at 12.5 mg/ml in 70% DMSO in MilliQ water. […] Balb/c mice strain has been used for the study. These animals have been obtained from controlled breeding and were specific pathogen free. The animals have been provided by Janvier SAS, France. AD-like lesions have been induced once a week by topical application of 20 μl of Der f solution on the right ear for 5 weeks at […], day 29 and day 36. Mice have been daily treated from day 19 to day 36 with the different solutions administrated by the topical route. Measurement of ear thickness have been monitored before and 24 hours after each allergen application. After day 19, ears have been daily measured before compound application. Blood samples have been collected into appropriate vials under isoflurane anaesthesia for further analysis (IgE). Mice have been then immediately euthanized. After mouse euthanasia, the right ear has been collected and has been washed in ethanol 70% and has been rinsed in PBS. Three skin biopsies have then been collected for cytokines profiles, eosinophil peroxidase (EPO) quantification and histological slides in order to quantify the mastocytes and in order to measure the epidermis thickness.

[1] = right ear skin biopsy, 0.05% triamcinolone acetonide, 0.1% tacrolimus
[2] = 0.05% triamcinolone acetonide, 0.1% tacrolimus
[3] = 0.05% triamcinolone acetonide, 0.1% tacrolimus, ivermectin 0.003, 0.01, 0.03 and 0.1%
[4] = histological slides, 0.05% triamcinolone acetonide, ivermectin 0.003, 0.01, 0.03 and 0.1%

Row | Molecule | cytokine concentration / production (IL-10, IL-13, IL-17, IL-4, IL-5, IFNg; FIG. 5) [1] | interleukin IL-17 production (FIG. 5) (right ear skin biopsy, 0.1% tacrolimus) | inflammatory response induced by Der f application [2] | ear edema (ear thickness, FIG. 1) [3] | IgE secretion (total seric IgE, FIG. 4) (blood sample, 0.05% triamcinolone acetonide, ivermectin 0.003, 0.01, 0.03 and 0.1%) | epidermal thickness (FIG. 2) [4] | mastocyte count (within the dermis, FIG. 6) [4] | dose response of the anti-inflammatory activity (ivermectin 0.003 to 0.1% topical) | anti-inflammatory response, higher concentrations (ivermectin 0.01, 0.03 and 0.1% topical, compared with 0.003%) | inflammatory response, compared with positive controls (ivermectin at 0.003% topical vs triamcinolone acetonide at 0.05% and tacrolimus at 0.1%) | EPO (eosinophil peroxidase, FIG. 3) (right ear skin biopsy, 0.05% triamcinolone acetonide, ivermectin 0.003, 0.01 and 0.03%)
1 | C=CC[C@@H]1/C=C(\C)C[C@H](C)C[C@H](OC)[C@H]2O[C@@](O)(C(=O)C(=O)N3CCCC[C@H]3C(=O)O[C@H](/C(C)=C/[C@@H]3CC[C@@H](O)[C@H](OC)C3)[C@H](C)[C@@H](O)CC1=O)[C@H](C)C[C@@H]2OC [tacrolimus] | totally reduces | totally reduces | completely inhibit | totally reduces | – | – | – | – | – | – | –
2 | Ivermectin | significantly decreases | – | able to reduce | significantly decreases | significantly decreases | lessens | lessens | inverse dose response | less potent than the weakest concentration (0.003%) | to the same extent as triamcinolone acetonide at 0.05% and as tacrolimus at 0.1% | significantly decreases

Source: patent US10398720B2, “Compound of the avermectin family or of the milbemycin family for the treatment and/or prevention of atopic dermatitis” (GALDERMA SA, priority 2013, dated 2019)
